28 molecules from patent US10519147B2 (Merck Sharp & Dohme Corp., priority 2015, dated 2019) can be followed below.

One experiment has as its target T1, human Nav1.7 (Homo sapiens, UniProt Q15858).
T1 construct: expressed in transfected cells; host or cells: HEK 293
As to the kind of experiment: IonWorks Quattro automated patch-clamp, inactivated state block of Nav1.7. As to conditions: channels stably expressed in HEK 293 cells; double-pulse protocol, inactivated state block; read-out: potency for the Nav 1.7 sodium ion channel (IC50, as measured by IonWorks). The format is cell-based. On the procedure:
(§1) Compounds were tested on human Nav1.7 and Nav1.5 channels stably expressed in HEK 293 cells. […] Cells were sealed on a planar substrate using the Population Patch […] (PPC) technology. Electrical access was obtained using both nystatin and amphotericin. A double-pulse protocol was used for the determination of IC50 values for inactivated state block. Nav1.7 and Nav1.5 expressing cells were voltage clamped at −100 mV and −110 mV, respectively. A depolarizing prepulse to −10 mV (Nav1.7) or −30 mV (Nav1.5) for 1000 ms followed by a 10 ms repolarization to −100 mV (Nav1.7) or −110 mV (Nav1.5) was given to generate fractional channel inactivation of 50%, followed by a 10 ms test pulse to −10 mV (Nav1.7) or −30 mV (Nav1.5) to measure peak current in control conditions and after compound addition. The following recording solutions were used (mM). External: 150 NaCl, 2 CaCl2, 5 KCl, 1 Mg Cl2, 10 HEPES, 12 Dextrose; internal: 120 CsF, 30 CsCl, 10 EGTA, 5 HEPES, 5 NaF, 2 MgCl2.
(§2) For all electrophysiology experiments, offline analysis was used to determine percent inhibition as a function of drug concentration. IC50 values were determined by fitting to the Hill equation.
Background: In patch-clamp work, channel activity is measured electrically.

The next experiment has as its target T2, human Nav1.5 (Homo sapiens, UniProt Q14524).
T2 construct: expressed in transfected cells; host or cells: HEK 293
As to the kind of experiment: IonWorks Quattro automated patch-clamp, Nav1.5 (selectivity against Nav1.7). It counts as cell-based. As to conditions: IonWorks measurement, HEK 293 cells, inactivated state block. On the procedure: as §1, §2

T1 sequence (Q15858 whole entry): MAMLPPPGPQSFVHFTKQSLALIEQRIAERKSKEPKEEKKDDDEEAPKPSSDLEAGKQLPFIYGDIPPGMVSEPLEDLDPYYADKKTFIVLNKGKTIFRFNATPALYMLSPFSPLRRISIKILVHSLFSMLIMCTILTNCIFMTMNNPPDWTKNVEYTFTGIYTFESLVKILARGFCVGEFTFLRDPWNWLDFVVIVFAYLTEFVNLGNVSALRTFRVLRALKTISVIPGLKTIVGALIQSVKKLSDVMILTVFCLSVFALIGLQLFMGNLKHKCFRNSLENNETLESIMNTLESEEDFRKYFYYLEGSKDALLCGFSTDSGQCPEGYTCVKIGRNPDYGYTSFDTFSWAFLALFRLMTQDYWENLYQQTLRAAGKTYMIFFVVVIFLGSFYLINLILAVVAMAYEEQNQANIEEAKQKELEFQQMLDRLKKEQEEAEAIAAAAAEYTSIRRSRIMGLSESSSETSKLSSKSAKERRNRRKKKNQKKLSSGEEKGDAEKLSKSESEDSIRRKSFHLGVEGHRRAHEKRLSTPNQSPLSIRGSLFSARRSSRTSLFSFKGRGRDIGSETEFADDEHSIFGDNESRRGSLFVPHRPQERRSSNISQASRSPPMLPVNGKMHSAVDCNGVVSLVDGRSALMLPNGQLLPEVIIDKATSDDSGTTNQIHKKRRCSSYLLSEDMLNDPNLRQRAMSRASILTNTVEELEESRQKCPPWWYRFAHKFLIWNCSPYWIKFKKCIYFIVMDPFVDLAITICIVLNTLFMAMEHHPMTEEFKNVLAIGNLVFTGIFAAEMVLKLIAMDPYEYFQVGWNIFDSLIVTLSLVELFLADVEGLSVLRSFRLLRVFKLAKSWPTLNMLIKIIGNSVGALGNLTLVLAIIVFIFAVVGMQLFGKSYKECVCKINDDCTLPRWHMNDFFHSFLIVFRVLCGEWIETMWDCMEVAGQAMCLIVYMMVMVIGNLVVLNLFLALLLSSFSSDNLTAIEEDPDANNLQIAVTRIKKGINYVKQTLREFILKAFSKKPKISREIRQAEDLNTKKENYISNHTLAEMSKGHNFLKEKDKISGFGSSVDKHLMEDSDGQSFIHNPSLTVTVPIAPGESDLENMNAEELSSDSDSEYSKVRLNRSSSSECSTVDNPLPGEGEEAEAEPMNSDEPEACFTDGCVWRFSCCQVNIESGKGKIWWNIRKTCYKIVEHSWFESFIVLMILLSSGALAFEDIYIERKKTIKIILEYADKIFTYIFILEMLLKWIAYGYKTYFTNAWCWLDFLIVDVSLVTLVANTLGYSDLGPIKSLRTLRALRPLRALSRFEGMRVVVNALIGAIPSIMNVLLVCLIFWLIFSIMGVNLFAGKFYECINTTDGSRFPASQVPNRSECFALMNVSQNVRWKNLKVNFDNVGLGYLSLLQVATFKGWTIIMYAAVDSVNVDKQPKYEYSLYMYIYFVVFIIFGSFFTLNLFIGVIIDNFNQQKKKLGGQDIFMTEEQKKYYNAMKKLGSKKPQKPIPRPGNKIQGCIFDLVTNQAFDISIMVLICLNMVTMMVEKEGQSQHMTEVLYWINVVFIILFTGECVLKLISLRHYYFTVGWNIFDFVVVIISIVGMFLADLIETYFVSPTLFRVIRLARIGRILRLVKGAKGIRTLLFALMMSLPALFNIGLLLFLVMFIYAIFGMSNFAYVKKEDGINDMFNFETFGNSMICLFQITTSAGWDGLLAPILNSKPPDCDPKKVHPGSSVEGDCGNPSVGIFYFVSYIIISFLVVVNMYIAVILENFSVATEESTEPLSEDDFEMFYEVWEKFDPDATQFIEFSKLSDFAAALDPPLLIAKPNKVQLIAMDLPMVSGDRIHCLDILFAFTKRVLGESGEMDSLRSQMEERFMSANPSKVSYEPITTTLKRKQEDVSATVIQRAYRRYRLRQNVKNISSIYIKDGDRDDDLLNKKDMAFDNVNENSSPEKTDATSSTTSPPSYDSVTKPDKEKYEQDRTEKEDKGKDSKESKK
T2 sequence (Q14524 whole entry): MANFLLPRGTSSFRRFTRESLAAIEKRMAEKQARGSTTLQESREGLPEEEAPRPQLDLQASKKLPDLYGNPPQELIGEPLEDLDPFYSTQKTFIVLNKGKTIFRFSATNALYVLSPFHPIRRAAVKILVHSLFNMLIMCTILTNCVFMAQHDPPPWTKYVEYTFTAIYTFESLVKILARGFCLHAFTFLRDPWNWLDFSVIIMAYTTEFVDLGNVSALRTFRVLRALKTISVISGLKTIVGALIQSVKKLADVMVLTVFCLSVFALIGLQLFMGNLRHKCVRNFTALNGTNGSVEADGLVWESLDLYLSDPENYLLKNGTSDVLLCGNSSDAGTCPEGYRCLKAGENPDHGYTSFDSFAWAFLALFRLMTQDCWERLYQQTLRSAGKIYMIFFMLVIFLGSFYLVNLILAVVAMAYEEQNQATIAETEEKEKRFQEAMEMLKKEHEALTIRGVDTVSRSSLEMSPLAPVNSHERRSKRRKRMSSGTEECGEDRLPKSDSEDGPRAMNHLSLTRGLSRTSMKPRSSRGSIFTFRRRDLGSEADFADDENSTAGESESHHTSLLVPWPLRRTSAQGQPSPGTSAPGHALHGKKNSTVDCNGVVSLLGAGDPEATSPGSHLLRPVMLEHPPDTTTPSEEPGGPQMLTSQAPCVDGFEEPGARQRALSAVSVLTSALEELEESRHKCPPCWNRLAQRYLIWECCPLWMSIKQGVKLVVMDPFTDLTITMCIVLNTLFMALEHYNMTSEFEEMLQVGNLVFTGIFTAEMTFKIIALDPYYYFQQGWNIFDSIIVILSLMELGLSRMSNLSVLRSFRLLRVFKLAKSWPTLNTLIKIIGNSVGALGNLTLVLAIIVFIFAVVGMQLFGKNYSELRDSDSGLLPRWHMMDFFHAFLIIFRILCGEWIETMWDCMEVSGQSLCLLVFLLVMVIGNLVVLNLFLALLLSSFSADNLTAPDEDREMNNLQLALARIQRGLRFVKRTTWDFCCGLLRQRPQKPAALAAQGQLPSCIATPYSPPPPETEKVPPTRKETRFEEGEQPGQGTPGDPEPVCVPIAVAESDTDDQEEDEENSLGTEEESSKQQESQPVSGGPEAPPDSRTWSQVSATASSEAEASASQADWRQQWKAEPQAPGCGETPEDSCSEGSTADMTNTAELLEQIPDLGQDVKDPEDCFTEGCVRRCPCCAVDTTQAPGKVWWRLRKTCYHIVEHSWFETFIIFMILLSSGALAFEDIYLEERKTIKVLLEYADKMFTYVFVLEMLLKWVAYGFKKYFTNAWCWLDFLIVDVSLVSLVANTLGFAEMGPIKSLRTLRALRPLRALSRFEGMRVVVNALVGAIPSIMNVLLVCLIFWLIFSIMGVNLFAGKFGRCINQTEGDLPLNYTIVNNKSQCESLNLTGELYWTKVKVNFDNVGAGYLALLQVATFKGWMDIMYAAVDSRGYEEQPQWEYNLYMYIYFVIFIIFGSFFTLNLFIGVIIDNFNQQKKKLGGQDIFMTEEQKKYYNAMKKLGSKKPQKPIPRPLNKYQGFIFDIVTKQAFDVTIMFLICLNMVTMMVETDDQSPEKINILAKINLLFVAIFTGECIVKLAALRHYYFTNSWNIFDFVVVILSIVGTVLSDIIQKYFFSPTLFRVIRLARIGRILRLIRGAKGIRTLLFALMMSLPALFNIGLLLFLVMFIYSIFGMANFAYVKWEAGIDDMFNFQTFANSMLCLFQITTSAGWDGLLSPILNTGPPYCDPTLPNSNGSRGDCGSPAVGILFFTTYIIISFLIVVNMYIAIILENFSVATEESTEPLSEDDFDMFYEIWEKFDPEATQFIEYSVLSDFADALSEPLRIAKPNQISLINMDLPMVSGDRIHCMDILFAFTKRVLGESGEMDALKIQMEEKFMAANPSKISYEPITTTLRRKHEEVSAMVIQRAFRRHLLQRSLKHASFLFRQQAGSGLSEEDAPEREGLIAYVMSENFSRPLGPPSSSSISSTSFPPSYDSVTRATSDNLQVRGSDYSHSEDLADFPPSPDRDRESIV

One may read the IC50 as the midpoint of a concentration-inhibition curve. As for `NC1CCC1NCCCCNc1cc(F)c(S(=O)(=O)Nc2ncns2)cc1Cl` (single isomer, unassigned) [Ex 16-82, 4-[4-[[(1S,2S) or (1R,2R)-2-aminocyclobutyl]amino]butylamino]-5-chloro-2-fluoro-N-(1,2,4-thiadiazol-5-yl) benzenesulfonamide], the concentration for half-maximal inhibition (IC50) on human Nav1.7 is 3.3 nM. For the same molecule, the “ratio of Nav 1.7 potency:Nav 1.5 potency” value at human Nav1.5 is greater than 10000. For the molecule `NC1CCC1NCCCCNc1cc(F)c(S(=O)(=O)Nc2ncns2)cc1Cl` (single isomer, unassigned) [Ex 16-83, 4-[4-[[(1R,2R) or (1S,2S)-2-aminocyclobutyl]amino]butylamino]-5-chloro-2-fluoro-N-(1,2,4-thiadiazol-5-yl)benzenesulfonamide], the IC50 at human Nav1.7 is 4.7 nM. In addition, the “ratio of Nav 1.7 potency:Nav 1.5 potency” value at human Nav1.5 is greater than 7020. In the case of `O=S(=O)(Nc1nccs1)c1cc(Cl)c(NCCCCNC[C@@H]2CCCCN2)cc1F` [Ex 1-04, 5-chloro-2-fluoro-4-[(4-{[(2S)-piperidin-2-ylmethyl]amino}butyl)amino]-N-1,3-thiazol-2-yl-benzenesulfonamide], the IC50 on human Nav1.7 was determined as 9.6 nM. Moreover, the “ratio of Nav 1.7 potency:Nav 1.5 potency” value is listed as greater than 3440 at human Nav1.5 and 3440 on human Nav1.5 (listed as Ex1-04). Turning to `N[C@H]1CCCC[C@@H]1NCCCCNc1cc(F)c(S(=O)(=O)Nc2nccs2)cc1Cl` [Ex 1-07, 4-[(4-{[(1S,2S)-2-amino-cyclohexyl]amino}butyl)-amino]-5-chloro-2-fluoro-N-1,3-thiazol-2-yl-benzenesulfonamide], the IC50 on human Nav1.7 turned out to be 18 nM. Besides, the “ratio of Nav 1.7 potency:Nav 1.5 potency” value on human Nav1.5 is given as greater than 1800. Regarding `C[C@H](NCCCCNc1cc(F)c(S(=O)(=O)Nc2nccs2)cc1Cl)[C@@H]1CCCN1` [Ex 1-27, 5-chloro-2-fluoro-4-{[4-({(1S)-1-[(2S)-pyrrolidin-2-yl]ethyl}amino)butyl]-amino}-N-1,3-thiazol-2-yl-benzenesulfonamide], the half-maximal inhibitory concentration (IC50) on human Nav1.7 was found to be 31 nM. Also, the “ratio of Nav 1.7 potency:Nav 1.5 potency” value at human Nav1.5 is greater than 1070. For `O=S(=O)(Nc1nccs1)c1cc(Br)c(NCCCCN[C@@H]2CCNC2)cc1F` [Ex 16-37, 5-bromo-2-fluoro-4-({4-[(3R)-pyrrolidin-3-ylamino]-butyl}amino)-N-1,3-thiazol-2-ylbenzenesulfonamide], the IC50 at human Nav1.7 came to 19 nM. The same measure, in the same setting: the same measure for `O=S(=O)(Nc1nccs1)c1cc(Cl)c(NCCCCN[C@H]2CCCCNC2)cc1F` [Ex 16-41, (S)-4-{[4-(azepan-3-ylamino)-butyl]amino}-5-chloro-2-fluoro-N-1,3-thiazol-2-yl-benzenesulfonamide]: 14 nM.

Turning to `CNCCNCCCCNc1cc(F)c(S(=O)(=O)Nc2ncc(Cl)s2)cc1Cl` [Ex 16-49, 5-chloro-N-(5-chloro-1,3-thiazol-2-yl)-2-fluoro-4-[(4-{[2-(methylamino)ethyl]-amino}butyl)amino] benzene-sulfonamide], the concentration for half-maximal inhibition (IC50) at human Nav1.7 was 14 nM.

With `CNCCNCCCCNc1cc(F)c(S(=O)(=O)Nc2nccs2)cc1Br` [Ex 16-50, 5-bromo-2-fluoro-4-[(4-{[2-(methylamino)ethyl]amino}-butyl)amino]-N-1,3-thiazol-2-ylbenzenesulfonamide], the IC50 at human Nav1.7 was 11 nM. The same measure, in the same setting: the same measure for `CNCCCNCCCCNc1cc(F)c(S(=O)(=O)Nc2nccs2)cc1Br` [Ex 16-55, 5-bromo-2-fluoro-4-[(4-{[3-(methylamino)propyl]amino}butyl)amino]-N-1,3-thiazol-2-ylbenzenesulfonamide]: 18 nM; for `CNCCCNCCCCNc1cc(F)c(S(=O)(=O)Nc2ncc(F)s2)cc1Br` [Ex 16-56, 5-bromo-2-fluoro-N-(5-fluoro-1,3-thiazol-2-yl)-4-[(4-{[3-(methylamino)-propyl]amino}butyl)amino]-benzenesulfonamide]: 12 nM.

As for `O=S(=O)(Nc1ncns1)c1cc(Cl)c(NCCCCNCCCNCCF)cc1F` [Ex 16-58, 5-chloro-2-fluoro-4-{[4-({3-[(2-fluoroethyl)amino]-propyl}amino)butyl]amino}-N-1,2,4-thiadiazol-5-yl-benzenesulfonamide], at human Nav1.7, the IC50 turned out to be 37 nM. Still for that read-out and setting: with `C[C@H](CN)NCCCCNc1cc(F)c(S(=O)(=O)Nc2ncns2)cc1Cl` [Ex 16-60, 4-[(4-{[(1R)-2-amino-1-methylethyl]amino}butyl)-amino]-5-chloro-2-fluoro-N-1,2,4-thiadiazol-5-yl-benzenesulfonamide] the figure was 11 nM; with `CC(C)(CN)NCCCCNc1cc(F)c(S(=O)(=O)Nc2ncc(F)s2)cc1Cl` [Ex 16-61, 4-({4-[(2-amino-1,1-dimethylethyl)amino]butyl}amino)-5-chloro-2-fluoro-N-(5-fluoro-1,3-thiazol-2-yl)benzenesulfonamide], 21 nM.

As for `NC1(CNCCCCNc2cc(F)c(S(=O)(=O)Nc3ncc(F)s3)cc2Cl)CC1` [Ex 16-63, 4-[(4-{[(1-aminocyclopropyl)methyl]amino}butyl)amino]-5-chloro-2-fluoro-N-(5-fluoro-1,3-thiazol-2-yl)benzenesulfonamide], the concentration for half-maximal inhibition (IC50) at human Nav1.7 came out at 56 nM. In the case of `CN[C@H](C)CNCCCCNc1cc(F)c(S(=O)(=O)Nc2ncc(F)s2)cc1Cl` [Ex 16-65, 5-chloro-2-fluoro-N-(5-fluoro-1,3-thiazol-2-yl)-4-[(4-{[(2R)-2-(methylamino)propyl]amino}butyl)amino] benzenesulfonamide], the IC50 at human Nav1.7 worked out at 28 nM. As to `C[C@@H](CN)NCCCCNc1cc(F)c(S(=O)(=O)Nc2ncc(F)s2)cc1Cl` [Ex 16-66, 4-[(4-{[(1S)-2-amino-1-methylethyl]amino}butyl)amino]-5-chloro-2-fluoro-N-(5-fluoro-1,3-thiazol-2-yl)benzenesulfonamide], on human Nav1.7, the half-inhibitory concentration (IC50) was determined as 16 nM. Regarding `C[C@@H](CN)NCCCCNc1cc(F)c(S(=O)(=O)Nc2ncns2)cc1Cl` [Ex 16-67, 4-[(4-{[(1S)-2-amino-1-methylethyl]amino}butyl)amino]-5-chloro-2-fluoro-N-1,2,4-thiadiazol-5-ylbenzenesulfonamide], the half-inhibitory concentration (IC50) at human Nav1.7 stood at 16 nM.

In the case of `NC1(CNCCCCNc2cc(F)c(S(=O)(=O)Nc3ncc(F)s3)cc2Cl)CCC1` [Ex 16-69, 4-[(4-{[(1-aminocyclobutyl)methyl]amino}butyl)amino]-5-chloro-2-fluoro-N-(5-fluoro-1,3-thiazol-2-yl)benzenesulfonamide], the 50% inhibitory concentration (IC50) at human Nav1.7 amounted to 18 nM. Still for that read-out and setting: with `N[C@H]1CCC[C@@H]1NCCCCNc1cc(F)c(S(=O)(=O)Nc2nccs2)cc1Cl` [Ex 16-72, 4-[(4-{[(1S,2S)-2-aminocyclopentyl]amino}butyl)amino]-5-chloro-2-fluoro-N-1,3-thiazol-2-ylbenzenesulfonamide] the figure was 11 nM; with `O=S(=O)(Nc1ncc(F)s1)c1cc(Cl)c(NCCCCNC[C@H]2CCN2)cc1F` [Ex 16-73, 4-[(4-{[(2R)-azetidin-2-ylmethyl]amino}butyl)amino]-5-chloro-2-fluoro-N-(5-fluoro-1,3-thiazol-2-yl)benzenesulfonamide], 19 nM. Take `C[C@H](CN)NCCCCNc1cc(F)c(S(=O)(=O)Nc2ncns2)cc1Br` [Ex 16-78, 4-[(4-{[(1R)-2-amino-1-methylethyl]amino}butyl)amino]-5-bromo-2-fluoro-N-1,2,4-thiadiazol-5-ylbenzenesulfonamide]: the half-inhibitory concentration (IC50) at human Nav1.7 amounted to 12 nM. Still for that read-out and setting: with `NC1(CNCCCCNc2cc(F)c(S(=O)(=O)Nc3ncns3)cc2Br)CC1` [Ex 16-89, 4-[4-[(1-aminocyclopropyl)methylamino]butylamino]-5-bromo-2-fluoro-N-(1,2,4-thiadiazol-5-yl)benzenesulfonamide] the figure was 12 nM; with `CNCCNCCCCNc1cc(F)c(S(=O)(=O)Nc2ncns2)cc1Br` [Ex 16-90, 5-bromo-2-fluoro-4-[4-[2-(methylamino)ethylamino]butylamino]-N-(1,2,4-thiadiazol-5-yl)benzenesulfonamide], 5.1 nM; with `CNCCCNCCCCNc1cc(F)c(S(=O)(=O)Nc2ncns2)cc1Br` [Ex 16-91, 5-bromo-2-fluoro-4-[4-[3-(methylamino)propylamino]butylamino]-N-(1,2,4-thiadiazol-5-yl)benzenesulfonamide], 14 nM. For `CC1(NCCCCNc2cc(F)c(S(=O)(=O)Nc3ncns3)cc2Br)CCNC1` (stereo not shown) [Ex 16-96, 5-bromo-2-fluoro-4-[4-[(3-methylpyrrolidin-3-yl)amino]butylamino]-N-(1,2,4-thiadiazol-5-yl)benzenesulfonamide], the IC50 at human Nav1.7 came out at 15 nM. On the same count and under the same terms, the same measure for `NCCCNCCCCNc1cc(F)c(S(=O)(=O)Nc2ncns2)cc1Br` [Ex 16-97, 4-[4-(3-aminopropylamino)butylamino]-5-bromo-2-fluoro-N-(1,2,4-thiadiazol-5-yl)benzenesulfonamide]: 18 nM; for `O=S(=O)(Nc1ncns1)c1cc(Br)c(NCCCCN[C@H]2CCNC2)cc1F` [Ex 16-100, (S)-5-bromo-2-fluoro-4-((4-(pyrrolidin-3-ylamino)butyl)amino)-N-(1,2,4-thiadiazol-5-yl)benzenesulfonamide]: 15 nM.
